Experiments:
Assay type in all cases: cell-based
[1] = tested on: MCF7; test: NCI panel growth inhibition, MCF7; conditions: Homo sapiens, Breast Cancer
From the text: (§1) Compound I has also been tested in a battery of tumor cell assays known as the NCI panel.

[2] = tested on: SK-MEL-5; test: NCI panel growth inhibition, SK-MEL-5; conditions: Homo sapiens, Melanoma
From the text: as §1

[3] = tested on: MDA-MB-435; test: NCI panel growth inhibition, MDA-MB-435; conditions: Homo sapiens, Breast Cancer
From the text: as §1

[4] = tested on: NCI-H23; test: NCI panel growth inhibition, NCI-H23; conditions: Homo sapiens, Non-Small Cell Lung Cancer
From the text: as §1

[5] = tested on: NCI-H322M; test: NCI panel growth inhibition, NCI-H322M; conditions: Homo sapiens, Non-Small Cell Lung Cancer
From the text: as §1

[6] = tested on: SK-MEL-28; test: NCI panel growth inhibition, SK-MEL-28; conditions: Homo sapiens, Melanoma
From the text: as §1

[7] = tested on: SNB-75; test: NCI panel growth inhibition, SNB-75; conditions: Homo sapiens, CNS Cancer
From the text: as §1

[8] = tested on: OVCAR-4; test: NCI panel growth inhibition, OVCAR-4; conditions: Homo sapiens, Ovarian
From the text: as §1

[9] = tested on: U251; test: NCI panel growth inhibition, U251; conditions: Homo sapiens, U-251, CNS Cancer
From the text: as §1

[10] = tested on: EKVX; test: NCI panel growth inhibition, EKVX; conditions: Homo sapiens, Non-Small Cell Lung Cancer
From the text: as §1

[11] = tested on: PC-3; test: NCI panel growth inhibition, PC-3; conditions: Homo sapiens, Prostate
From the text: as §1

[12] = tested on: SF-539; test: NCI panel growth inhibition, SF-539; conditions: Homo sapiens, CNS Cancer
From the text: as §1

[13] = tested on: A498; test: NCI panel growth inhibition, A498; conditions: Homo sapiens, Renal
From the text: as §1

[14] = tested on: A549; test: NCI panel growth inhibition, A549; conditions: Homo sapiens, Non-Small Cell Lung Cancer
From the text: as §1

[15] = tested on: LOX IMVI; test: NCI panel growth inhibition, LOX IMVI; conditions: Homo sapiens, Melanoma
From the text: as §1

[16] = tested on: SW-620; test: NCI panel growth inhibition, SW-620; conditions: Homo sapiens, Colon Cancer
From the text: as §1

[17] = tested on: COLO 205; test: NCI panel growth inhibition, COLO 205; conditions: Homo sapiens, Colon Cancer
From the text: as §1

[18] = tested on: NCI panel cancer cell lines; test: NCI panel of tumor cell assays, summary over cell lines; conditions: all NCI panel cell lines
From the text: Compound I has also been tested in a battery of tumor cell assays known as the NCI panel. […] Using this measure, 1.8% of cell lines were particularly sensitive to Compound B at this level, while 39% were particularly sensitive to Compound I at the same concentration. […] Loss of PTEN activity often occurs in cancers, and enhances the sensitivity of a tumor to PI3K inhibitors. […] The following Table summarizes the cell lines found to be sensitive to Compound I and the known mutations in those cell lines.

[19] = tested on: SF-268; test: NCI panel growth inhibition, SF-268; conditions: Homo sapiens, CNS Cancer
From the text: as §1

[20] = tested on: TK-10; test: NCI panel growth inhibition, TK-10; conditions: Homo sapiens, Renal
From the text: as §1

[21] = tested on: ACHN; test: NCI panel growth inhibition, ACHN; conditions: Homo sapiens, Renal
From the text: as §1

[22] = tested on: ADR-RES; test: NCI panel growth inhibition, ADR-RES; conditions: Breast Cancer
From the text: as §1

[23] = tested on: HT29; test: NCI panel growth inhibition, HT29; conditions: Homo sapiens, HT-29, Colon Cancer
From the text: as §1

[24] = tested on: SNB-19; test: NCI panel growth inhibition, SNB-19; conditions: Homo sapiens, CNS Cancer
From the text: as §1

[25] = tested on: SK-OV-3; test: NCI panel growth inhibition, SK-OV-3; conditions: Homo sapiens, Ovarian
From the text: as §1

[26] = tested on: MDA-MB-231; test: NCI panel growth inhibition, MDA-MB-231; conditions: Homo sapiens, Breast Cancer
From the text: as §1

[27] = tested on: MALME-3M; test: NCI panel growth inhibition, MALME-3M; conditions: Homo sapiens, Melanoma
From the text: as §1

[28] = tested on: OVCAR-3; test: NCI panel growth inhibition, OVCAR-3; conditions: Homo sapiens, Ovarian
From the text: as §1

[29] = tested on: M14; test: NCI panel growth inhibition, M14; conditions: Homo sapiens, Melanoma
From the text: as §1

[30] = tested on: MDA-MB-468; test: NCI panel growth inhibition, MDA-MB-468; conditions: Homo sapiens, Breast Cancer
From the text: as §1

[31] = tested on: OVCAR-5; test: NCI panel growth inhibition, OVCAR-5; conditions: Homo sapiens, Ovarian
From the text: as §1

[32] = tested on: HCT-116; test: NCI panel growth inhibition, HCT-116; conditions: Homo sapiens, Colon Cancer
From the text: as §1

[33] = tested on: RXF 393; test: NCI panel growth inhibition, RXF 393; conditions: Homo sapiens, Renal
From the text: as §1

[34] = tested on: NCI-H460; test: NCI panel growth inhibition, NCI-H460; conditions: Homo sapiens, Non-Small Cell Lung Cancer
From the text: as §1

[35] = tested on: UACC-62; test: NCI panel growth inhibition, UACC-62; conditions: Homo sapiens, Melanoma
From the text: as §1

[36] = tested on: HS 578T; test: NCI panel growth inhibition, HS 578T; conditions: Homo sapiens, Breast Cancer
From the text: as §1

[37] = tested on: HCC-2998; test: NCI panel growth inhibition, HCC-2998; conditions: Homo sapiens, Colon Cancer
From the text: as §1

[38] = tested on: NCI-H522; test: NCI panel growth inhibition, NCI-H522; conditions: Homo sapiens, Non-Small Cell Lung Cancer
From the text: as §1

[39] = tested on: BT-549; test: NCI panel growth inhibition, BT-549; conditions: Homo sapiens, Breast Cancer
From the text: as §1

[40] = tested on: SK-MEL-2; test: NCI panel growth inhibition, SK-MEL-2; conditions: Homo sapiens, Melanoma
From the text: as §1

[41] = tested on: T-47D; test: NCI panel growth inhibition, T-47D; conditions: Homo sapiens, T47D, Breast Cancer
From the text: as §1

[42] = tested on: KM12; test: NCI panel growth inhibition, KM12; conditions: Homo sapiens, Colon Cancer
From the text: as §1

[43] = tested on: CAKI-1; test: NCI panel growth inhibition, CAKI-1; conditions: Homo sapiens, Renal
From the text: as §1

[44] = tested on: SF-295; test: NCI panel growth inhibition, SF-295; conditions: Homo sapiens, CNS Cancer
From the text: as §1

[45] = tested on: SN12C; test: NCI panel growth inhibition, SN12C; conditions: Homo sapiens, Renal
From the text: as §1

[46] = tested on: UO-31; test: NCI panel growth inhibition, UO-31; conditions: Homo sapiens, Renal
From the text: as §1

[47] = tested on: HOP-92; test: NCI panel growth inhibition, HOP-92; conditions: Homo sapiens, Non-Small Cell Lung Cancer
From the text: as §1

[48] = tested on: NCI-H226; test: NCI panel growth inhibition, NCI-H226; conditions: Homo sapiens, Non-Small Cell Lung Cancer
From the text: as §1

[49] = tested on: HOP-62; test: NCI panel growth inhibition, HOP-62; conditions: Homo sapiens, Non-Small Cell Lung Cancer
From the text: as §1

[50] = tested on: IGROV1; test: NCI panel growth inhibition, IGROV1; conditions: Homo sapiens, IGROV-1, Ovarian
From the text: as §1

[51] = tested on: DU-145; test: NCI panel growth inhibition, DU-145; conditions: Homo sapiens, Prostate
From the text: as §1

[52] = tested on: UACC-257; test: NCI panel growth inhibition, UACC-257; conditions: Homo sapiens, Melanoma
From the text: as §1

[53] = tested on: 786-0; test: NCI panel growth inhibition, 786-0; conditions: Homo sapiens, Renal
From the text: as §1

[54] = tested on: HCT-15; test: NCI panel growth inhibition, HCT-15; conditions: Homo sapiens, Colon Cancer
From the text: as §1

[55] = tested on: OVCAR-8; test: NCI panel growth inhibition, OVCAR-8; conditions: Homo sapiens, Ovarian
From the text: as §1

With `CC[C@H](Nc1ncnc2[nH]cnc12)c1nc2cccc(F)c2c(=O)n1-c1ccccc1` [Compound B, reference compound] the GI50 [1] was 7.08 µM, the GI50 [2] was 32.9 µM and the GI50 [3] was 16.4 µM. The GI50 [4] was 100 µM, the GI50 [5] was 32.2 µM and the GI50 [6] was 38.6 µM. For the same compound, the GI50 [7] was 2.96 µM, the GI50 [8] was 100 µM and the GI50 [9] was 70.4 µM. It also gave a GI50 [10] of 28.2 µM, a GI50 [11] of 12 µM and a GI50 [12] of 28.6 µM. It also gave a GI50 [13] of 2.38 µM, a GI50 [14] of 50.4 µM and a GI50 [15] of 31.1 µM. For the same compound, the GI50 [16] was 86.4 µM, the GI50 [17] was 30.1 µM and the “Cell lines particularly sensitive (GI50 of 2 micromolar or less)” value [18] was 1.8%. The GI50 [19] was 29.8 µM, the GI50 [20] was 31.7 µM and the GI50 [21] was 24.4 µM. It also gave a GI50 [22] of 77.9 µM, a GI50 [23] of 39.1 µM and a GI50 [24] of 54.8 µM. The GI50 [25] was 13.8 µM, the GI50 [26] was 100 µM and the GI50 [27] was 31.6 µM. It also gave a GI50 [28] of 15.5 µM, a GI50 [29] of 58.4 µM and a GI50 [30] of 13.6 µM. It also gave a GI50 [31] of 40.1 µM, a GI50 [32] of 54.3 µM and a GI50 [33] of 74.2 µM. The GI50 [34] was 34.7 µM, the GI50 [35] was 4.2 µM and the GI50 [36] was 6.91 µM. The GI50 [37] was 53.3 µM, the GI50 [38] was 52.7 µM and the GI50 [39] was 14.3 µM. For the same compound, the GI50 [40] was 100 µM, the GI50 [41] was 3.18 µM and the GI50 [42] was 54.1 µM. It also gave a GI50 [43] of 13.4 µM, a GI50 [44] of 8.18 µM and a GI50 [45] of 11 µM. It also gave a GI50 [46] of 5.32 µM, a GI50 [47] of 34.8 µM and a GI50 [48] of 100 µM. For the same compound, the GI50 [49] was 39.7 µM, the GI50 [50] was 3.54 µM and the GI50 [51] was 43.8 µM. It also gave a GI50 [52] of 33.5 µM, a GI50 [53] of 5.48 µM and a GI50 [54] of 48.4 µM. The GI50 [55] was 96 µM.

— patent publication US8546409B2, “Methods of treatment for solid tumors” (priority 2009, dated 2013)
